From US20060275299A1, “Use of protein tyrosine phosphatase inhibitors for prevention and/or treatment of cancer” (priority 2002, published 2006) come the findings set out here.

Common to all, as to assay type: cell-based, human
Data set [1] concerns Sap-1. The experiment in a line: DTT treatment of Sap-1 overexpressing COS7 cells, multimers on non-reducing gel. The method, then:
Cells treated with DTT were serum-starved 8 hours after transfection (with PTP-Sap1 constructs or vector), and then incubated for 30 minutes in serum-free medium with various amount of DTT (Sigma). Before lysis in a buffer containing 150 mM iodoacetamide (“IODA” Sigma), cells were washed with ice cold PBS containing 50 mM iodoacetamide in order to block the free DTT. Samples were run under reducing and non-reducing conditions, with or without β-mercaptoethanol in the sample buffer, respectively.

Data set [2] relates to Sap-1. The experiment in a line: Chemical cross-linking of Sap-1 constructs in transfected COS7 cells (Western blot). The settings on record: for cross-linking of ECD-deleted Sap-1 / cross-linking of full-length (FL) Sap-1: anti-HA Western blot, FIG. 5. How it is done:
COS 7 cells were transfected with the indicated construct and left for 24 hours at 37° C. Medium was changed and a solution of BS3 (Pierce) in PBS (2.5 mg/ml) or PBS alone was added, and left for 1 hour at 4° C. The cross-linking reaction was stopped by the addition of PBS that contained 0.15 M Tris pH 7.5 for 15 minutes at 4° C. Cells were finally lysed and the protein content was used for further analysis. The treatment with DSS (Pierce) was the same except that the product was dissolved in DMSO at a concentration of 25 mM (10×). It was then diluted in PBS and cells were incubated with 0.1×DMSO.
For orientation: Immunoblotting shows a protein as a band on a membrane.

For data set [3], the system named is WiDr cells. The experiment in a line: Streptolysin transfection of antisense ODN and BrdU proliferation assay. The conditions noted are these: BrdU, streptolysin-O, ODN 1 mM final.

`O[C@H](CS)[C@H](O)CS` (racemic) [DTT, Dithiothreitol]: in data set [1] (30 minutes at 50 mM DTT, washout, 15 minutes recovery without DTT), the “reversibility of multimer disruption” value is given as “fully restored formation of the multimers”. In addition, the “multimerized Sap-1 on non-reducing gel” value in data set [1] (cells incubated 30 minutes in DTT, FIG. 6B) was “dose-dependent decrease”.

Take `O=C(CCCCCCC(=O)ON1C(=O)CC(S(=O)(=O)O)C1=O)ON1C(=O)CC(S(=O)(=O)O)C1=O` (stereo not drawn) [BS3, Bis-Sulfosuccinimidyl-Suberate]: in data set [2], the “cross-linking of ECD-deleted Sap-1” value is given as “no effect” and the “cross-linking of full-length (FL) Sap-1” value is reported as “induces the formation of a complex with high MW”. In addition, in data set [2] (anti-Myc Western blot, FIG. 8A), the “cross-linking of FLEX-Cterm Sap-1 construct” value is given as “efficiently cross-linked”.

As to `O=C(CCCCCCC(=O)ON1C(=O)CCC1=O)ON1C(=O)CCC1=O` [DSS, Di-Succinimidyl-Suberate], the “cross-linking of membrane-associated ECD-deleted Sap-1 lacking transmembrane domain (lck myristoylation peptide)” value in data set [2] (FIG. 5B right panel) is on record as “could not be cross-linked”. Besides, in data set [2], the “cross-linking of ECD-deleted Sap-1” value is “but not ECD-deleted Sap-1” and the “cross-linking of full-length (FL) Sap-1” value is on record as “able to cross-link”.

With “AS2: antisense ODN to PTP-SAP1 mRNA: TGACCCGGGTCCAAGGCCAT (antisense TGACCCGGGTCCAAGGCCAT; chemistry not given here)”, in data set [3], the “reduction of the proliferation” value was determined as 20%.
